In ChEMBL document CHEMBL4308841, “Synthesis, in vitro antiproliferative activity, and kinase inhibitory effects of pyrazole-containing diarylureas and diarylamides” (Eur J Med Chem, 2018):
pIC50: −log10 of the molar value.

Legend:
[1] = test system: 786-0; experiment: Growth inhibition of human 786-0 cells assessed as cell growth at 0.1 uM incubated for 48 hrs by sulforhodamine B assay relative to control; assay type: functional; conditions: 786-0, 48 h, read-out: Activity
[2] = test system: CAKI-1; experiment: Growth inhibition of human Caki1 cells assessed as cell growth at 0.1 uM incubated for 48 hrs by sulforhodamine B assay relative to control; assay type: functional; conditions: CAKI-1, 48 h, read-out: Activity
[3] = test system: UACC-257; experiment: Growth inhibition of human UACC257 cells assessed as cell growth at 0.1 uM incubated for 48 hrs by sulforhodamine B assay relative to control; assay type: functional; conditions: UACC-257, 48 h, read-out: Activity
[4] = test system: ACHN; experiment: Growth inhibition of human ACHN cells incubated for 48 hrs by sulforhodamine B assay; assay type: functional, cell-based
[5] = test system: NCI-H226; experiment: Growth inhibition of human NCI-H226 cells assessed as cell growth at 0.01 uM incubated for 48 hrs by sulforhodamine B assay relative to control; assay type: functional; conditions: NCI-H226, 48 h, read-out: Activity
[6] = test system: MDA-MB-468; experiment: Growth inhibition of human MDA-MB-468 cells assessed as cell growth at 1 uM incubated for 48 hrs by sulforhodamine B assay relative to control; assay type: functional; conditions: MDA-MB-468, 48 h, read-out: Activity
[7] = test system: UACC-62; experiment: Growth inhibition of human UACC62 cells assessed as cell growth at 0.1 uM incubated for 48 hrs by sulforhodamine B assay relative to control; assay type: functional; conditions: UACC-62, 48 h, read-out: Activity
[8] = test system: COLO 205; experiment: Growth inhibition of human COLO205 cells incubated for 48 hrs by sulforhodamine B assay; assay type: functional, cell-based; conditions: COLO 205, 48 h
[9] = test system: NCI-H23; experiment: Growth inhibition of human NCI-H23 cells assessed as cell growth at 0.01 uM incubated for 48 hrs by sulforhodamine B assay relative to control; assay type: functional; conditions: NCI-H23, 48 h, read-out: Activity
[10] = test system: NCI/ADR-RES; experiment: Growth inhibition of human NCI/ADR-RES cells assessed as cell growth at 0.1 uM incubated for 48 hrs by sulforhodamine B assay relative to control; assay type: functional; conditions: read-out: Activity
[11] = test system: LOX IMVI; experiment: Growth inhibition of human LOXIMVI cells assessed as cell growth at 1 uM incubated for 48 hrs by sulforhodamine B assay relative to control; assay type: functional; conditions: read-out: Activity
[12] = test system: SK-MEL-28; experiment: Growth inhibition of human SK-MEL-28 cells assessed as cell growth at 100 uM incubated for 48 hrs by sulforhodamine B assay relative to control; assay type: functional; conditions: SK-MEL-28, 48 h, read-out: Activity
[13] = test system: NCI-H522; experiment: Growth inhibition of human NCI-H522 cells assessed as cell growth at 0.01 uM incubated for 48 hrs by sulforhodamine B assay relative to control; assay type: functional; conditions: NCI-H522, 48 h, read-out: Activity
[14] = test system: COLO 205; experiment: Growth inhibition of human COLO205 cells assessed as cell growth at 1 uM incubated for 48 hrs by sulforhodamine B assay relative to control; assay type: functional; conditions: COLO 205, 48 h, read-out: Activity
[15] = test system: MCF7; experiment: Growth inhibition of human MCF7 cells assessed as cell growth at 0.01 uM incubated for 48 hrs by sulforhodamine B assay relative to control; assay type: functional; conditions: MCF7, 48 h, read-out: Activity
[16] = test system: LOX IMVI; experiment: Growth inhibition of human LOXIMVI cells incubated for 48 hrs by sulforhodamine B assay; assay type: functional
[17] = test system: HOP-62; experiment: Growth inhibition of human HOP62 cells assessed as cell growth at 100 uM incubated for 48 hrs by sulforhodamine B assay relative to control; assay type: functional; conditions: HOP-62, 48 h, read-out: Activity
[18] = test system: Malme-3M; experiment: Growth inhibition of human MALME-3M cells assessed as cell growth at 0.1 uM incubated for 48 hrs by sulforhodamine B assay relative to control; assay type: functional; conditions: read-out: Activity
[19] = test system: K562; experiment: Growth inhibition of human K562 cells assessed as cell growth at 1 uM incubated for 48 hrs by sulforhodamine B assay relative to control; assay type: functional; conditions: K562, 48 h, read-out: Activity
[20] = test system: U-251; experiment: Growth inhibition of human U251 cells incubated for 48 hrs by sulforhodamine B assay; assay type: functional, cell-based; conditions: U-251, 48 h
[21] = test system: 786-0; experiment: Growth inhibition of human 786-0 cells assessed as cell growth at 1 uM incubated for 48 hrs by sulforhodamine B assay relative to control; assay type: functional; conditions: 786-0, 48 h, read-out: Activity
[22] = test system: MCF7; experiment: Growth inhibition of human MCF7 cells assessed as cell growth at 0.1 uM incubated for 48 hrs by sulforhodamine B assay relative to control; assay type: functional; conditions: MCF7, 48 h, read-out: Activity
[23] = test system: DU-145; experiment: Growth inhibition of human DU145 cells assessed as cell growth at 0.1 uM incubated for 48 hrs by sulforhodamine B assay relative to control; assay type: functional; conditions: DU-145, 48 h, read-out: Activity
[24] = test system: HCT-116; experiment: Growth inhibition of human HCT116 cells incubated for 48 hrs by sulforhodamine B assay; assay type: functional, cell-based; conditions: HCT-116, 48 h
[25] = test system: CAKI-1; experiment: Growth inhibition of human Caki1 cells assessed as cell growth at 1 uM incubated for 48 hrs by sulforhodamine B assay relative to control; assay type: functional; conditions: CAKI-1, 48 h, read-out: Activity
[26] = test system: SF-539; experiment: Growth inhibition of human SF539 cells assessed as cell growth at 100 uM incubated for 48 hrs by sulforhodamine B assay relative to control; assay type: functional; conditions: SF-539, 48 h, read-out: Activity
[27] = test system: SK-OV-3; experiment: Growth inhibition of human SKOV3 cells assessed as cell growth at 0.1 uM incubated for 48 hrs by sulforhodamine B assay relative to control; assay type: functional; conditions: SK-OV-3, 48 h, read-out: Activity
[28] = test system: M14; experiment: Growth inhibition of human M14 cells incubated for 48 hrs by sulforhodamine B assay; assay type: functional, cell-based; conditions: M14, 48 h
[29] = test system: OVCAR-8; experiment: Growth inhibition of human OVCAR8 cells assessed as cell growth at 0.1 uM incubated for 48 hrs by sulforhodamine B assay relative to control; assay type: functional; conditions: OVCAR-8, 48 h, read-out: Activity
[30] = test system: K562; experiment: Growth inhibition of human K562 cells assessed as cell growth at 0.01 uM incubated for 48 hrs by sulforhodamine B assay relative to control; assay type: functional; conditions: K562, 48 h, read-out: Activity
[31] = read-out: LC50 (the source's name)
[32] = read-out: pLC50 (the source's name) (converted)

Compound: COc1cc(Cl)cc(-c2nn(-c3cccc(NC(=O)c4cccc(C(F)(F)F)c4)c3)cc2-c2ccncc2)c1
- growth at 0.1 µM [1]: 97%
- growth at 0.1 µM [2]: 94%
- growth at 0.1 µM [3]: 91%
- GI50 ([4]; read-out: GI50): 7.21 µM
- CC50 [4, 31]: > 100 µM
- TGI ([4]; read-out: TGI): > 100 µM
- GI50 ([4]; read-out: pGI50 (converted)): 7.24 µM
- CC50 [4, 32]: > 100 µM
- TGI ([4]; read-out: pTGI (converted)): > 100 µM
- growth at 0.01 µM [5]: 95%
- growth at 1 µM [6]: 50%
- growth at 0.1 µM [7]: 94%
- GI50 ([8]; read-out: GI50): 3.37 µM
- CC50 [8, 31]: > 100 µM
- TGI ([8]; read-out: TGI): > 100 µM
- GI50 ([8]; read-out: pGI50 (converted)): 33.9 µM
- CC50 [8, 32]: > 100 µM
- TGI ([8]; read-out: pTGI (converted)): > 100 µM
- growth at 0.01 µM [9]: 93%
- growth at 0.1 µM [10]: 104%
- growth at 1 µM [11]: 88%
- growth at 100 µM [12]: 75%
- growth at 0.01 µM [13]: 51%
- growth at 1 µM [14]: 94%
- growth at 0.01 µM [15]: 93%
- GI50 ([16]; read-out: GI50): 1.57 µM
- CC50 [16, 31]: > 100 µM
- TGI ([16]; read-out: TGI): > 100 µM
- GI50 ([16]; read-out: pGI50 (converted)): 15.8 µM
- CC50 [16, 32]: > 100 µM
- TGI ([16]; read-out: pTGI (converted)): > 100 µM
- growth at 100 µM [17]: 83%
- growth at 0.1 µM [18]: 90%
- growth at 1 µM [19]: 90%
- pIC50 [20]: 5.25
- GI50 ([20]; read-out: GI50): 5.58 µM
- CC50 [20, 31]: > 100 µM
- TGI ([20]; read-out: TGI): > 100 µM
- GI50 ([20]; read-out: pGI50 (converted)): 5.62 µM
- CC50 [20, 32]: > 100 µM
- TGI ([20]; read-out: pTGI (converted)): > 100 µM
- growth at 1 µM [21]: 56%
- growth at 0.1 µM [22]: 92%
- growth at 0.1 µM [23]: 107%
- pIC50 [24]: 5.50
- GI50 ([24]; read-out: GI50): 3.17 µM
- CC50 [24, 31]: > 100 µM
- TGI ([24]; read-out: TGI): > 100 µM
- GI50 ([24]; read-out: pGI50 (converted)): 3.16 µM
- CC50 [24, 32]: > 100 µM
- TGI ([24]; read-out: pTGI (converted)): > 100 µM
- growth at 1 µM [25]: 90%
- growth at 100 µM [26]: 53%
- growth at 0.1 µM [27]: 105%
- GI50 ([28]; read-out: GI50): 0.09 µM
- CC50 [28, 31]: > 100 µM
- TGI ([28]; read-out: TGI): > 100 µM
- GI50 ([28]; read-out: pGI50 (converted)): 6.03 µM
- CC50 [28, 32]: > 100 µM
- TGI ([28]; read-out: pTGI (converted)): > 100 µM
- growth at 0.1 µM [29]: 94%
- growth at 0.01 µM [30]: 108%

Compound: COc1cc(Cl)cc(-c2nn(-c3cccc(NC(=O)Nc4cc(C(F)(F)F)cc(C(F)(F)F)c4)c3)cc2-c2ccncc2)c1
- growth at 0.1 µM [1]: 92%
- growth at 0.1 µM [2]: 95%
- growth at 0.1 µM [3]: 94%
- pIC50 [4]: 6.40
- GI50 ([4]; read-out: GI50): 0.397 µM
- CC50 [4, 31]: > 100 µM
- TGI ([4]; read-out: TGI): 12.5 µM
- GI50 ([4]; read-out: pGI50 (converted)): 0.398 µM
- CC50 [4, 32]: > 100 µM
- TGI ([4]; read-out: pTGI (converted)): 12.6 µM
- growth at 0.01 µM [5]: 101%
- growth at 1 µM [6]: 15%
- growth at 0.1 µM [7]: 92%
- pIC50 [8]: 6.35
- GI50 ([8]; read-out: GI50): 0.448 µM
- TGI ([8]; read-out: TGI): 1.88 µM
- GI50 ([8]; read-out: pGI50 (converted)): 0.447 µM
- CC50 [8, 32]: 6.92 µM
- TGI ([8]; read-out: pTGI (converted)): 1.86 µM
- growth at 0.01 µM [9]: 94%
- growth at 0.1 µM [10]: 95%
- growth at 100 µM [12]: -58%
- growth at 0.01 µM [13]: 93%
- growth at 1 µM [14]: 24%
- growth at 0.01 µM [15]: 58%
- growth at 100 µM [17]: -60%
- growth at 0.1 µM [18]: 87%
- growth at 1 µM [19]: 18%
- pIC50 [20]: 6.49
- GI50 ([20]; read-out: GI50): 0.324 µM
- CC50 [20, 31]: 0.043 µM
- TGI ([20]; read-out: TGI): 1.31 µM
- GI50 ([20]; read-out: pGI50 (converted)): 0.324 µM
- CC50 [20, 32]: 4.37 µM
- TGI ([20]; read-out: pTGI (converted)): 1.32 µM
- growth at 1 µM [21]: 38%
- growth at 0.1 µM [22]: 91%
- growth at 0.1 µM [23]: 95%
- pIC50 [24]: 6.48
- GI50 ([24]; read-out: GI50): 0.332 µM
- TGI ([24]; read-out: TGI): 1.27 µM
- GI50 ([24]; read-out: pGI50 (converted)): 0.331 µM
- CC50 [24, 32]: 6.61 µM
- TGI ([24]; read-out: pTGI (converted)): 1.26 µM
- growth at 1 µM [25]: 22%
- growth at 100 µM [26]: -73%
- growth at 0.1 µM [27]: 105%
- pIC50 [28]: 6.36
- GI50 ([28]; read-out: GI50): 0.442 µM
- CC50 [28, 31]: 0.0939 µM
- TGI ([28]; read-out: TGI): 2.16 µM
- GI50 ([28]; read-out: pGI50 (converted)): 0.447 µM
- CC50 [28, 32]: 9.33 µM
- TGI ([28]; read-out: pTGI (converted)): 2.14 µM
- growth at 0.1 µM [29]: 105%
- growth at 0.01 µM [30]: 97%
